Reference: ChEMBL document CHEMBL5325456, “5-(4-Hydroxyphenyl)-3H-1,2-dithiole-3-thione derivatives of brefeldin A: Design, synthesis and cytotoxicity in MDA-MB-231 human breast cancer cells” (Bioorg Med Chem, 2023)

Columns and labels:
A549 = assay: Antiproliferative activity against human A549 cells assessed as reduction in cell viability incubated for 48 hrs by CCk-8 assay; format: functional, cell-based; conditions: A549, 48 h
DU-145 = assay: Antiproliferative activity against human DU-145 cells assessed as reduction in cell viability incubated for 48 hrs by CCk-8 assay; format: functional, cell-based; conditions: DU-145, 48 h
A-375 = assay: Antiproliferative activity against human A-375 cells assessed as reduction in cell viability incubated for 48 hrs by CCk-8 assay; format: functional, cell-based; conditions: A-375, 48 h
HeLa = assay: Antiproliferative activity against human HeLa cells assessed as reduction in cell viability incubated for 48 hrs by CCk-8 assay; format: functional, cell-based
HepG2 = assay: Antiproliferative activity against human HepG2 cells assessed as reduction in cell viability incubated for 48 hrs by CCk-8 assay; format: functional, cell-based; conditions: HepG2, 48 h
MDA-MB-231 = assay: Antiproliferative activity against human MDA-MB-231 cells assessed as reduction in cell viability incubated for 48 hrs by CCk-8 assay; format: functional, cell-based; conditions: MDA-MB-231, 48 h
[1] = Antiproliferative activity against human L02 cells assessed as reduction in cell viability incubated for 48 hrs by CCk-8 assay; format: toxicity, cell-based
[2] = Selectivity index, ratio of IC50 for antiproliferative activity against human L02 cells to IC50 for antiproliferative activity against human MDA-MB-231 cells; format: toxicity, cell-based; conditions: L02 cells and MDA-MB-231 cells, read-out: Ratio IC50

Structure (SMILES) | IC50 (A549) [µM] | IC50 (DU-145) [µM] | IC50 (A-375) [µM] | IC50 (HeLa) [µM] | IC50 (HepG2) [µM] | IC50 (MDA-MB-231) [µM] | IC50 at 48 h [1] [µM] | selectivity ratio [2]
C[C@H]1CCC/C=C/[C@@H]2C[C@H](O)C[C@H]2[C@H](OC(=O)CCCC(=O)OCCCCCCOc2ccc(-c3cc(=S)ss3)cc2)/C=C/C(=O)O1 | 0.67 | 1.11 | 0.53 | 0.37 | 1.72 | 0.51 | 3.24 | 6.35
C[C@H]1CCC/C=C/[C@@H]2C[C@H](O)C[C@H]2[C@H](OC(=O)c2ccccc2C(=O)Oc2ccc(-c3cc(=S)ss3)cc2)/C=C/C(=O)O1 | 0.33 | > 40 | 1.07 | 0.3 | 7.03 | 1.34 | 3.55 | 2.64
C[C@H]1CCC/C=C/[C@@H]2C[C@H](O)C[C@H]2[C@H](O)/C=C/C(=O)O1 [BREFELDIN A] | 0.056 | 0.16 | 0.039 | 0.044 | 0.12 | 0.054 | 0.094 | 1.74
C[C@H]1CCC/C=C/[C@@H]2C[C@H](O)C[C@H]2[C@H](OC(=O)CCC(=O)OCCOc2ccc(-c3cc(=S)ss3)cc2)/C=C/C(=O)O1 | 2.73 | 1.85 | 1.69 | 3.47 | 4.65 | 1.19 | 8.3 | 6.97
